Test results as given in ChEMBL document CHEMBL4814056, “Discovery of chalcone analogues as novel NLRP3 inflammasome inhibitors with potent anti-inflammation activities” (Eur J Med Chem, 2021).
Blank lines part the entries; values can stand above or below the compound they belong to. Active and inactive are the calls of the source. No cut-off for these calls is given here.

Legend:
[1] = biological target: T1, NACHT, LRR and PYD domains-containing protein 3 (Mus musculus, UniProt Q8R4B8); experiment: Inhibition of NLRP3 in mouse J774A.1 cells infected with FLA-ST assessed as inhibition of LPS- induced IL-1beta production by ELISA; type: cell-based, J774.A1
T1 sequence (Q8R4B8 whole entry, the tested form may be a part): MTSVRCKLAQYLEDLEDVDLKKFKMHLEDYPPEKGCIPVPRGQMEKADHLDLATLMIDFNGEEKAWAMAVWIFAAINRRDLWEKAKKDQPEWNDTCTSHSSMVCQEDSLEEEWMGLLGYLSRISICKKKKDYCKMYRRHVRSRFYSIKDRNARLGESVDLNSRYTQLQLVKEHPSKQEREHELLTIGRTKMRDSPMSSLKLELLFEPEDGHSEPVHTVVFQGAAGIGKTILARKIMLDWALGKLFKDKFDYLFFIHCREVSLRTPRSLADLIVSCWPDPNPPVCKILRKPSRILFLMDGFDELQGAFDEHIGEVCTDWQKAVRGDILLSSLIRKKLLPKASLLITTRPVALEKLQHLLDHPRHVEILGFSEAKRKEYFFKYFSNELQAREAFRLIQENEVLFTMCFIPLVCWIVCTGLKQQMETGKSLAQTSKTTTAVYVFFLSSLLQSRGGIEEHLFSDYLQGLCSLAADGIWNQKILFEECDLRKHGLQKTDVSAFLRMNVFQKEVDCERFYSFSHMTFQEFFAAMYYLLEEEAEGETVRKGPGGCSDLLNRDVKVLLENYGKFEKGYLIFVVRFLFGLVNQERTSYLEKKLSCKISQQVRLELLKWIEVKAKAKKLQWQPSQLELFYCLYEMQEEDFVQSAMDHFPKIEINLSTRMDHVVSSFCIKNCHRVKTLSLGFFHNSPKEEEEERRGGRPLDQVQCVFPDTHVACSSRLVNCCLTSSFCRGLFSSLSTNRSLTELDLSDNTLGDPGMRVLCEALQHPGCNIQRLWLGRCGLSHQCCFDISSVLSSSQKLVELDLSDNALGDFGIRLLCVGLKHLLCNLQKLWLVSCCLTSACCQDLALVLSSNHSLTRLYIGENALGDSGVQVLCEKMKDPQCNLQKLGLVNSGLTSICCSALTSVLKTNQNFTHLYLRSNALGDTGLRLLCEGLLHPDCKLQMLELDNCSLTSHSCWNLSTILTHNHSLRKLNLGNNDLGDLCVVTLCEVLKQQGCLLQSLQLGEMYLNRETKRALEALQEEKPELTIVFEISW

[2] = Cytotoxicity against human HEK293T cells assessed as reduction in cell viability at 24 hrs by CCK8 assay; type: cell-based, HEK-293T; conditions: read-out: TD50
[3] = Selectivity index, ratio of TC50 for cytotoxicity against human HEK293T cells to IC50 for inhibition of NLRP3 in mouse J774A.1 cells
[4] = biological target: T1, NACHT, LRR and PYD domains-containing protein 3; experiment: (§1) Inhibition of NLRP3 inflammasome activation in LPS/nigericin-treated mouse BMDM cells assessed as inhibition of LPS and nigericin-induced IL-1beta production pre-treated for 1 hr measured after 1 hr of stimulation by ELISA; type: cell-based
[5] = biological target: NACHT, LRR and PYD domains-containing protein 3 (Mus musculus) (UniProt Q8R4B8); experiment: Inhibition of NLRP3 inflammasome activation in LPS/nigericin-treated mouse J774A.1 cells assessed as effect on […] in cell lysate pre-treated for 1 hr at 1 to 5 uM measured after 1 hr of stimulation by Western blot analysis; type: subcellular; conditions: J774.A1, dose 1-5 µM, time 2.0 hrs
NACHT, LRR and PYD domains-containing protein 3 (Mus musculus), sequence (Q8R4B8 whole entry, the tested form may be a part): as above

[6] = system: Mus musculus; experiment: Antiinflammatory activity in po dosed LPS-induced sepsis C57BL/6 mouse model assessed as reduction in IL-1beta secretion in serum measured after 6 hrs by ELISA; type: functional, organism-based; conditions: dose 25-50 mg/kg
[7] = system: J774.A1; experiment: Cytotoxicity against mouse J774A.1 cells assessed as reduction in cell viability at 2 hrs by CellTiter 96 AQueous One solution cell proliferation assay; type: cell-based; conditions: j774.a1, 2 h
[8] = Stability assessed as glutathione reactivity of compound incubated for 24 hrs; type: physicochemical
[9] = system: Mus musculus; experiment: Anti-colitis activity against DSS-induced colitis C57BL/6 mouse model assessed as reduction in fecal occult blood treated orally once daily for 14 days started from day 3 post DSS-challenge; type: functional, organism-based; conditions: dose 25-50 mg/kg, time 14.0 day
[10] = biological target: NLR family CARD domain-containing protein 4 (Mus musculus) (UniProt Q3UP24); experiment: Inhibition of NLRC4 inflammasome activation in LPS-induced mouse […] cells infected with […] pre-treated for 1 hr at 1 to 5 uM measured after 1 hr of stimulation; conditions: J774.A1, dose 1-5 µM, time 2.0 hrs
NLR family CARD domain-containing protein 4 (Mus musculus), sequence (Q3UP24 whole entry, the tested form may be a part): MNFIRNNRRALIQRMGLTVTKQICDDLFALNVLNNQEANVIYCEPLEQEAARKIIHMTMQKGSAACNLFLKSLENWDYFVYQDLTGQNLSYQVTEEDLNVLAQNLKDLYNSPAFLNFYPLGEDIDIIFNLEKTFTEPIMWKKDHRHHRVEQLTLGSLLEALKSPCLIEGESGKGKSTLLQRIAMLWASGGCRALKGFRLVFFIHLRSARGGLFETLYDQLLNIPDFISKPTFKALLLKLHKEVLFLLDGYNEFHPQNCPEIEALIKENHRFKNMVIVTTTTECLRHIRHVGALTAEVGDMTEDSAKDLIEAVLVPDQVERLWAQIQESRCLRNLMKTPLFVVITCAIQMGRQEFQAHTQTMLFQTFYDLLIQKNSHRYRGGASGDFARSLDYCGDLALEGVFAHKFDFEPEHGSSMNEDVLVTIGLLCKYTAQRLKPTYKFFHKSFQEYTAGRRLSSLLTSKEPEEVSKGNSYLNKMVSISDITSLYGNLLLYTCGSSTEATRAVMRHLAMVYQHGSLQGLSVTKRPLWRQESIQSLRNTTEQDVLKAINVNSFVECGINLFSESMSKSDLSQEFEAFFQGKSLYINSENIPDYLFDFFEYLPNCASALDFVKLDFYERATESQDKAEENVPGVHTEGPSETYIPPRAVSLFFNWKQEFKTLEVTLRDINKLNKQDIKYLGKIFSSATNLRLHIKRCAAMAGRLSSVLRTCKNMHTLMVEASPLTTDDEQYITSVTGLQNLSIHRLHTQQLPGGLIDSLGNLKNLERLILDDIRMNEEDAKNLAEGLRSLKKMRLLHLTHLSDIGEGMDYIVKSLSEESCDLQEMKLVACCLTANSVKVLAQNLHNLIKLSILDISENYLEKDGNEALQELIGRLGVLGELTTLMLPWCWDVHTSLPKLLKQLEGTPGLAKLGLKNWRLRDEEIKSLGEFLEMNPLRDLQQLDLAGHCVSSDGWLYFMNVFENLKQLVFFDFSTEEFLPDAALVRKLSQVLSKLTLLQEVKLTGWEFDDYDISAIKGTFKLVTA

[11] = system: Mus musculus; experiment: Antiinflammatory activity in po dosed LPS-induced sepsis C57BL/6 mouse model assessed as reduction in IL-1beta secretion in peritonial fluid measured after 6 hrs by ELISA; type: functional, organism-based; conditions: dose 25-50 mg/kg
[12] = biological target: NACHT, LRR and PYD domains-containing protein 3 (Mus musculus) (UniProt Q8R4B8); experiment: Inhibition of NLRP3 inflammasome activation in LPS/nigericin-treated mouse J774A.1 cells assessed as blockade of IL-1beta secretion pre-treated for 1 hr measured after 1 hr of stimulation by Western blot analysis; conditions: J774.A1, dose 1-5 µM, time 2.0 hrs
[13] = system: Mus musculus; experiment: Anti-colitis activity against DSS-induced colitis C57BL/6 mouse model assessed as reduction in colon length treated orally once daily for 14 days started from day 3 post DSS-challenge; type: functional, organism-based; conditions: dose 25-50 mg/kg, time 14.0 day
[14] = biological target: NACHT, LRR and PYD domains-containing protein 3 (Mus musculus) (UniProt Q8R4B8); experiment: Inhibition of NLRP3 inflammasome activation in LPS/nigericin-treated mouse J774A.1 cells assessed as effect on pro-IL-1-beta pre-treated for 1 hr at 1 to 5 uM measured after 1 hr of stimulation by Western blot analysis; conditions: J774.A1, dose 1-5 µM, time 2.0 hrs
[15] = biological target: NACHT, LRR and PYD domains-containing protein 3 (Mus musculus) (UniProt Q8R4B8); experiment: Inhibition of NLRP3 inflammasome activation in LPS/nigericin-treated mouse J774A.1 cells assessed as blockade of caspase 1 p20 maturation pre-treated for 1 hr measured after 1 hr of stimulation by Western blot analysis; conditions: J774.A1, dose 1-5 µM, time 2.0 hrs
[16] = system: J774.A1; experiment: Inhibition of mitochondrial reactive oxygen species generation in LPS/nigericin-induced mouse J774.A1 cells pre-treated for 1 hr at 1 to 5 uM measured after 1 hr of stimulation by MitoSOX Red fluorescence microplate-reader relative to control; type: functional; conditions: dose 1-5 µM, time 2.0 hrs
[17] = system: J774.A1; experiment: Anti-pyroptosis activity against LPS/nigericin-induced mouse […] cells pre-treated for 1 hr at 1 to 5 uM measured after 1 hr of stimulation; type: functional, cell-based; conditions: dose 1-5 µM
[18] = biological target: T2, Interferon-inducible protein AIM2 (Mus musculus) (UniProt Q91VJ1); experiment: Inhibition of AIM2 inflammasome activation in LPS-induced mouse […] cells infected with […] pre-treated for 1 hr at 1 to 5 uM measured after 1 hr of stimulation; conditions: J774.A1, dose 1-5 µM, time 2.0 hrs
T2 sequence (whole entry): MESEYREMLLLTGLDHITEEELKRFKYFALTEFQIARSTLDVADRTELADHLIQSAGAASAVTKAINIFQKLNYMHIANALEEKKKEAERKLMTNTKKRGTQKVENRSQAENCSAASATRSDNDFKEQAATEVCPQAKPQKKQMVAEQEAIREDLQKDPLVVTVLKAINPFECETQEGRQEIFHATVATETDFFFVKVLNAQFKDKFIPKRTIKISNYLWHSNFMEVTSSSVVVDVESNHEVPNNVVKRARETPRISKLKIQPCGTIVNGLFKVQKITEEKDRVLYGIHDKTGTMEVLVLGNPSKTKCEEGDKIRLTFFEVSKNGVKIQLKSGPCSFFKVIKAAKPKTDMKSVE

[19] = biological target: NACHT, LRR and PYD domains-containing protein 3 (Mus musculus) (UniProt Q8R4B8); experiment: Inhibition of NLRP3 inflammasome activation in LPS/nigericin-treated mouse J774A.1 cells assessed as inhibition of LPS and nigericin-induced IL-1beta production pre-treated for 1 hr measured after 1 hr of stimulation by ELISA; conditions: J774.A1, dose 1-5 µM, time 2.0 hrs
[20] = system: Mus musculus; experiment: Anti-colitis activity against DSS-induced colitis C57BL/6 mouse model assessed as reduction in IL-1 beta in colonic tissue treated orally once daily for 14 days started from day 3 post DSS-challenge by ELISA relative to control; type: functional, organism-based; conditions: dose 25-50 mg/kg, time 14.0 day
[21] = biological target: NACHT, LRR and PYD domains-containing protein 3 (Mus musculus) (UniProt Q8R4B8); experiment: Inhibition of NLRP3 inflammasome activation in LPS/nigericin-treated mouse J774A.1 cells assessed as effect on pro-caspase-1 pre-treated for 1 hr at 1 to 5 uM measured after 1 hr of stimulation by Western blot analysis; conditions: J774.A1, dose 1-5 µM
[22] = biological target: NACHT, LRR and PYD domains-containing protein 3 (Mus musculus) (UniProt Q8R4B8); experiment: as §1; type: cell-based; conditions: dose 1-5 µM, time 2.0 hrs
[23] = system: J774.A1; experiment: Inhibition of IL-1 beta release in LPS/nigericin-induced mouse J774.A1 cells pre-treated for 1 hr at 1 to 5 uM measured after 1 hr of stimulation by Western blot analysis; type: functional; conditions: dose 1-5 µM, time 2.0 hrs
[24] = system: J774.A1; experiment: Inhibition of reactive oxygen species generation in LPS/nigericin-induced mouse J774.A1 cells pre-treated for 1 hr at 1 to 5 uM measured after 1 hr of stimulation by DCFH-DA staining-based method relative to control; type: functional, cell-based; conditions: dose 1-5 µM, time 2.0 hrs
[25] = system: J774.A1; experiment: Cytotoxicity against mouse J774A.1 cells assessed as reduction in cell viability at 24 hrs by CCK8 assay; type: cell-based; conditions: j774.a1, 24 h
[26] = system: J774.A1; experiment: Inhibition of reactive oxygen species generation in LPS/nigericin-induced mouse J774.A1 cells pre-treated for 1 hr at 1 to 5 uM measured after 1 hr of stimulation by fluorescence microplate-reader relative to control; type: functional, cell-based; conditions: dose 1-5 µM, time 2.0 hrs

SMILES: COc1cc(/C=C/C(=O)c2ccc(SC)cc2)ccc1O
IC50 [1]: 10 µM

SMILES: Cc1cc(/C=C/C(=O)c2ccc(-c3ccccc3)cc2)cc(C)c1O
IC50 [1]: 29.4 µM

SMILES: COc1c(C)cc(/C=C/C(=O)c2ccc(NC(=O)Nc3ccc(F)cc3)cc2)cc1C
IC50 [1]: 23.5 µM

SMILES: Cc1cc(/C=C/C(=O)c2ccc(S(C)(=O)=O)cc2)cc(C)c1O
IC50 [1]: 12.9 µM

SMILES: CSc1ccc(C(=O)/C=C/c2ccc(O)cc2F)cc1
IC50 [1]: 12.7 µM

SMILES: CSc1ccc(C(=O)/C=C/c2cc(C)c(OC(C)(C)C(=O)O)c(C)c2)cc1 [ELAFIBRANOR]
CC50 at 24 h [2]: 142 µM
Selectivity Index [3]: 3.6
IC50 [1]: 39.6 µM

SMILES: CCCNC(=O)Oc1c(C)cc(/C=C/C(=O)c2ccc(SC)cc2)cc1C
IC50 [1]: 22.3 µM

SMILES: CSc1ccc(C(=O)/C=C/c2ccc(O)cc2)cc1
IC50 [1]: 14.6 µM

SMILES: O=C(O)c1ccc(/C=C2\SC(=S)N(Cc3cccc(C(F)(F)F)c3)C2=O)cc1
IC50 [4]: 1 µM

SMILES: C=C(COc1c(C)cc(/C=C/C(=O)c2ccc(SC)cc2)cc1C)C(=O)O
IC50 [1]: > 40 µM

SMILES: CSc1ccc(C(=O)/C=C/c2cc(C)c(OCCO)c(C)c2)cc1
IC50 [1]: 12.7 µM

SMILES: CCc1cc(/C=C/C(=O)c2ccc(SC)cc2)cc(CC)c1O
IC50 [1]: 11.7 µM

SMILES: COc1c(C)cc(/C=C/C(=O)c2ccc(NC(=O)NC(C)C)cc2)cc1C
IC50 [1]: 33.2 µM

SMILES: CSc1ccc(C(=O)/C=C/c2ccc(O)c(F)c2)cc1
IC50 [1]: 10.7 µM

SMILES: Cc1cc(/C=C/C(=O)c2ccc(F)cc2)cc(C)c1O
IC50 [1]: 12.3 µM

Continued, in another order:

inhibition [5]: inactive
Stabilty [8]: Stable
inhibition [10]: inactive
inhibition [12]: inactive
inhibition [14]: inactive
inhibition [15]: Dose-Dependent Effect
IC50 [1]: 1.3 µM
inhibition [18]: inactive
inhibition [19]: Dose-Dependent Effect
Activity [21]: inactive
inhibition [22]: Dose-Dependent Effect
SMILES: C=CC(=O)Nc1ccc(C(=O)/C=C/c2cc(C)c(O)c(C)c2)cc1
Activity [6]: Dose-Dependent Effect
Activity [7]: Non-Toxic
Activity [9]: Active
CC50 at 24 h [2]: 156 µM
Activity [11]: Dose-Dependent Effect
Activity [13]: Active
Selectivity Index [3]: 119.7
inhibition [16]: Active
Activity [17]: Active
Activity [20]: Active
inhibition [23]: Active
inhibition [24]: Active
Activity [25]: Toxic
inhibition [26]: Active

IC50 [1]: 0.1 µM
SMILES: CS(=O)(=O)CCC#N [DAPANSUTRILE]

IC50 [1]: 3 µM
SMILES: CCN(CC)C(=S)SSC(=S)N(CC)CC [DISULFIRAM]

IC50 [1]: 9.6 µM
SMILES: CCCNC(=O)Nc1ccc(C(=O)/C=C/c2cc(C)c(OC)c(C)c2)cc1

IC50 [1]: 9.7 µM
SMILES: CSc1ccc(C(=O)/C=C/c2ccc(O)c(Cl)c2)cc1

IC50 [1]: 5.3 µM
SMILES: CSc1ccc(C(=O)/C=C/c2cc(C)c(O)cc2C)cc1

IC50 [1]: 5 µM
SMILES: Cc1cc(/C=C/C(=O)c2ccc(NS(=O)(=O)c3ccc(F)cc3)cc2)cc(C)c1O
